Laboratory results from paper PMC12332667, “Role of Structural Modifications in Peptidomimetic Compounds as Potential Antimicrobial Agents against Staphylococcus aureus and Streptococcus pyogenes: Balancing Bioavailability, Safety, and Antimicrobial Activity” (ACS Omega, 2025).
In brackets after ≈: the same amount, converted by molar mass. Residues, ends and D or L forms follow the SMILES beside them.

Assays:
S. pyogenes ATCC 19615 = test: MIC/MBC broth microdilution, S. pyogenes; format: cell-based, Streptococcus pyogenes; conditions: S. pyogenes
In short: (§1)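 BHI broth microdilution (NCCLS); ~10^5 CFU/mL; 37 °C, 18 h. MIC = lowest conc., no visible growth (≥90% vs untreated). MBC = ≤3 colonies, ≥99.9% kill. Water/DMSO/EtOH solvent controls; technical triplicate ×3 biological repeats.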

[1] = test system: immortalized human keratinocytes (HaCaT); test: LDH cytotoxicity test, keratinocytes; format: cell-based; conditions: 48 h, 50-150 μg/mL
In short: (§2)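 Cytotoxicity as LDH release after 48 h serum-free treatment (50, 100, 150 μg/mL peptidomimetics) of 46BR.1N fibroblasts or HaCaT keratinocytes seeded at 5000 per well. Absorbance 450 nm; untreated set as 0% and Triton X-100 1% as maximal release; Mann–Whitney U test, p ≤ 0.05.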

fibroblasts (46BR.1N) = test: LDH cytotoxicity test, fibroblasts; format: cell-based; conditions: 48 h, 50-150 μg/mL
In short: as §2

P. aeruginosa ATCC 10145 = test: MIC/MBC broth microdilution, P. aeruginosa; format: cell-based
In short: as §1

S. agalactiae ATCC 27956 = test: MIC/MBC broth microdilution, S. agalactiae; format: cell-based, Streptococcus agalactiae; conditions: S. agalactiae
In short: as §1

[2] = test system: immortalized human HaCaT keratinocytes; test: XTT cell proliferation assay, keratinocytes; format: cell-based; conditions: for effect on proliferation, in words: 48 and 72 h, 0.01–150 μg/mL
In short: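 Proliferation was read as XTT absorbance at 490 nm after 4 h of reagent incubation, following 48 or 72 h of peptide exposure in serum-free HG-DMEM (37 °C, 5% CO2). The 72 h arm included a half-medium change with second peptide dose at 48 h. Significance by Mann–Whitney U, p ≤ 0.05.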

S. aureus ATCC 43300 = test: MIC/MBC broth microdilution, S. aureus; format: cell-based, Staphylococcus aureus; conditions: S. aureus
S. intemrdius c.i. = test: MIC/MBC broth microdilution, S. intermedius; format: cell-based, Staphylococcus intermedius
In short: as §1

Row | Compound | MBC (S. pyogenes ATCC 19615; H2O) [µg/mL] | MIC (S. pyogenes ATCC 19615; H2O) [µg/mL] | MBC (S. pyogenes ATCC 19615; water additive DMSO) [µg/mL] | MIC (S. pyogenes ATCC 19615; water additive DMSO) [µg/mL] | MBC (S. pyogenes ATCC 19615; water additive EtOH) [µg/mL] | MIC (S. pyogenes ATCC 19615; water additive EtOH) [µg/mL] | cytotoxicity (LDH), in words [1] | cytotoxicity (LDH), in words (fibroblasts (46BR.1N)) | MBC (P. aeruginosa ATCC 10145; H2O) [µg/mL] | MIC (P. aeruginosa ATCC 10145; water additive EtOH) [µg/mL] | MIC (S. agalactiae ATCC 27956; H2O) [µg/mL] | MIC (S. agalactiae ATCC 27956; water additive EtOH) [µg/mL] | effect on proliferation, in words ([2]; XTT) | MIC (S. aureus ATCC 43300; H2O) [µg/mL] | MIC (S. aureus ATCC 43300; water additive DMSO) [µg/mL] | MIC (S. aureus ATCC 43300; water additive EtOH) [µg/mL] | further results
1 | CC(C)[C@H](NC(=O)[C@H](Cc1c[nH]cn1)NC(=O)[C@H](CCCNC(=N)N)NC(=O)OCc1ccccc1)C(=O)NCCc1ccccc1 [Compound A-219] (HELM PEPTIDE1{[O=C(OCc1ccccc1)[*:2]].R.H.V.[c1ccc(CCN[*:1])cc1]}$$$$V2.0) | 512 (≈ 790 µM) | 512 (≈ 790 µM) | 512 (≈ 790 µM) | 512 (≈ 790 µM) | 512 (≈ 790 µM) | 512 (≈ 790 µM) | no adverse effects | slight cytotoxicity | > 512 | 512 (≈ 790 µM) | > 512 | > 512 | best pro-proliferative effect | > 512 | > 512 | > 512 | MIC (P. aeruginosa ATCC 10145; H2O): 512 µg/mL (≈ 790 µM); MBC (P. aeruginosa ATCC 10145; water additive DMSO): 512 µg/mL (≈ 790 µM); MIC (P. aeruginosa ATCC 10145; water additive DMSO): 256 µg/mL (≈ 395 µM); MBC (P. aeruginosa ATCC 10145; water additive EtOH): > 512 µg/mL; MIC (S. agalactiae ATCC 27956; water additive DMSO): > 512 µg/mL; pro-proliferative effect above control ([2]; A-196 0.01–10 μg/mL, A-219 above 0.1 μg/mL, A-213 lower concentrations): around 20%
2 | CC(C)[C@@H](CNC(=O)C(=Cc1ccccc1)c1ccccc1)NC(=O)[C@H](CCCNC(=N)N)NC(=O)[C@H](CCCCNC(=N)N)NC(=O)OCc1ccccc1 [Compound A-192] | 8 (≈ 10.4 µM) | 8 (≈ 10.4 µM) | 8 (≈ 10.4 µM) | 8 (≈ 10.4 µM) | 8 (≈ 10.4 µM) | 4 (≈ 5.2 µM) | high cytotoxicity toward keratinocytes | much lower | 256 (≈ 333 µM) | > 512 | 32 (≈ 41.6 µM) | 32 (≈ 41.6 µM) | negative impact | 4 (≈ 5.2 µM) | 16 (≈ 20.8 µM) | 16 (≈ 20.8 µM) | MBC (S. intemrdius c.i.; H2O): 16 µg/mL (≈ 20.8 µM); MIC (S. intemrdius c.i.; H2O): 8 µg/mL (≈ 10.4 µM); MBC (S. intemrdius c.i.; water additive DMSO): 16 µg/mL (≈ 20.8 µM); MIC (S. intemrdius c.i.; water additive DMSO): 8 µg/mL (≈ 10.4 µM); MBC (S. intemrdius c.i.; water additive EtOH): 16 µg/mL (≈ 20.8 µM); MIC (S. intemrdius c.i.; water additive EtOH): 8 µg/mL (≈ 10.4 µM); proliferation relative to control at 100 and 150 μg/mL ([2]; XTT): 25%; proliferation relative to control at 50 μg/mL ([2]; XTT, 50 μg/mL): 50%; MBC (S. aureus ATCC 43300; H2O): 4 µg/mL (≈ 5.2 µM); MBC (S. aureus ATCC 43300; water additive DMSO): 16 µg/mL (≈ 20.8 µM); MBC (S. aureus ATCC 43300; water additive EtOH): 16 µg/mL (≈ 20.8 µM)
